{
  "source": "patent US11524966B1",
  "about": "(Valo Early Discovery, Inc., priority 2017, dated 2022)",
  "data": [
    {"target": "T1, USP28 (USP28-5(1-1077)-TEV-6*His; LifeSensors) (Homo sapiens, UniProt Q96RU2)", "T1 construct": "construct USP28 (USP28-5(1-1077)-TEV-6*His; LifeSensors); TEV cleavage site (C); 6xHis (C); purchased LifeSensors", "T1 sequence (Q96RU2 1-1077)": "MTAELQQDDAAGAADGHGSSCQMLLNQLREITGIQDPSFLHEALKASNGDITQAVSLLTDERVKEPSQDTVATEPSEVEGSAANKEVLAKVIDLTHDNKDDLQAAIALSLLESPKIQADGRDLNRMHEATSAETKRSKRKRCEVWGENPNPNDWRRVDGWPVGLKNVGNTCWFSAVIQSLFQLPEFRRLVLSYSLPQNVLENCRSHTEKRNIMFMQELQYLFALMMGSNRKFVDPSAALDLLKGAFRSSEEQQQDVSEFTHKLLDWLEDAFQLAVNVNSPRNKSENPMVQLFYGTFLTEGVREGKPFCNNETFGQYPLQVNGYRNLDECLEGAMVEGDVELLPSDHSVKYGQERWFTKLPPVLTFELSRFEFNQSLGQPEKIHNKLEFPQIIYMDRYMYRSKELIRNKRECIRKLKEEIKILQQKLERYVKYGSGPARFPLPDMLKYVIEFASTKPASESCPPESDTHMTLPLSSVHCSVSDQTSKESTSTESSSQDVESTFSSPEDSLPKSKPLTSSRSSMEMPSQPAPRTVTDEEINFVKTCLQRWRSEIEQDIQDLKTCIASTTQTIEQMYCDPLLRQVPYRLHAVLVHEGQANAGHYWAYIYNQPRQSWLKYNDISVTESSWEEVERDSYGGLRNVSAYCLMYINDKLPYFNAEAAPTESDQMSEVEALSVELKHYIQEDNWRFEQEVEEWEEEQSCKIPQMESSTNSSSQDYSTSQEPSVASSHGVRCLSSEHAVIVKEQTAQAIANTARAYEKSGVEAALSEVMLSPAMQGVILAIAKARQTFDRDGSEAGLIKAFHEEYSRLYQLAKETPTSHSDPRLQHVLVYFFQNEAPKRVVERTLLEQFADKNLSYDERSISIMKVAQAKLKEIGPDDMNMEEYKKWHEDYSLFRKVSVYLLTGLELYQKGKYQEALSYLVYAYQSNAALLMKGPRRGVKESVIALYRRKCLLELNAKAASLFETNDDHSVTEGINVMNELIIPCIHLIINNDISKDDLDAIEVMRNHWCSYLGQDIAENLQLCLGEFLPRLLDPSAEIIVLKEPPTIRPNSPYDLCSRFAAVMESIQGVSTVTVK", "experiment": "Ubiquitin-Rhodamine 110 Assay for USP28 Activity, Example A-1(b)", "type": "biochemical", "conditions": "Ub-Rh110 assay, Example A-1(b)", "outline": "(§1)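 Single-point screening used 10 μM compound with 90 min room-temperature incubation; follow-up dose-responses (25 μM top, 3-fold) used 75 pM USP28 1-1077 construct, 30 min compound preincubation, 25 nM Ub-Rh110, 20 min reaction, citric acid quench. Rh110 fluorescence normalised to no-enzyme and DMSO controls; IC50 from 4-parameter logistic fit.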", "values": [
      {"compound": "Cc1ccc2c(N)c(C(=O)N[C@H]3COc4cc(N5CCN[C@@H](C)[C@H]5C)ccc4C3)sc2n1", "note": "(single isomer, unassigned) [Example 1-7]", "USP28 A-1(b) IC50 range": "++++ (0.001-0.05 μM)"}
    ]},
    {"target": "T1, USP28 (USP28-5(1-1077)-TEV-6*His; LifeSensors)", "experiment": "Ubiquitin-Rhodamine 110 Assay for USP28 Activity, Example A-1(b)", "type": "biochemical", "conditions": "Ubiquitin-Rhodamine 110 assay, format Example A-1(b)", "outline": "as §1", "values": [
      {"compound": "Cc1nc2sc(C(=O)N[C@H]3CCc4cc(N5CCNCC5)ccc4C3)c(N)c2s1", "note": "(single isomer, unassigned) [Example 11-33]", "USP28 A-1(b) IC50 range": "+ (>2 μM)"},
      {"compound": "Cc1nc2sc(C(=O)N[C@@H]3CCc4cc(N5CC6CCC(C5)N6)ccc4C3)c(N)c2s1", "note": "(single isomer, unassigned) [Example 12-2]", "USP28 A-1(b) IC50 range": "++ (0.2-2 μM)"},
      {"compound": "Cc1ccc2c(N)c(C(=O)N[C@@H]3CCc4c(ccc(N5CC6CCC(C5)N6)c4C#N)C3)sc2n1", "note": "(single isomer, unassigned) [Example 14-1]", "USP28 A-1(b) IC50 range": "++++ (0.001-0.05 μM)"},
      {"compound": "Cc1ccc2c(N)c(C(=O)N[C@H]3CCc4c(ccc(N5CC6CCC(C5)N6)c4C#N)C3)sc2n1", "note": "(single isomer, unassigned) [Example 14-2]", "USP28 A-1(b) IC50 range": "++ (0.2-2 μM)"},
      {"compound": "Cc1ccc2c(N)c(C(=O)N[C@@H]3CCc4cc(N5CC6CCC(C5)N6)c(C#N)cc4C3)sc2n1", "note": "(single isomer, unassigned) [Example 14-3]", "USP28 A-1(b) IC50 range": "++ (0.2-2 μM)"},
      {"compound": "Cc1ccc2c(N)c(C(=O)N[C@H]3CCc4cc(N5CC6CCC(C5)N6)c(C#N)cc4C3)sc2n1", "note": "(single isomer, unassigned) [Example 14-4]", "USP28 A-1(b) IC50 range": "++++ (0.001-0.05 μM)"},
      {"compound": "Cc1cnc2c(N)c(C(=O)N[C@@H]3CCc4c(ccc(N5CC6CCC(C5)N6)c4C#N)C3)sc2n1", "note": "(single isomer, unassigned) [Example 14-5]", "USP28 A-1(b) IC50 range": "+++ (0.05-0.2 μM)"},
      {"compound": "Cc1cnc2c(N)c(C(=O)N[C@H]3CCc4c(ccc(N5CC6CCC(C5)N6)c4C#N)C3)sc2n1", "note": "(single isomer, unassigned) [Example 14-6]", "USP28 A-1(b) IC50 range": "+ (>2 μM)"},
      {"compound": "Cc1cnc2c(N)c(C(=O)N[C@@H]3CCc4cc(N5CC6CCC(C5)N6)c(C#N)cc4C3)sc2n1", "note": "(single isomer, unassigned) [Example 14-7]", "USP28 A-1(b) IC50 range": "++ (0.2-2 μM)"},
      {"compound": "Cc1cnc2c(N)c(C(=O)N[C@H]3CCc4cc(N5CC6CCC(C5)N6)c(C#N)cc4C3)sc2n1", "note": "(single isomer, unassigned) [Example 14-8]", "USP28 A-1(b) IC50 range": "++++ (0.001-0.05 μM)"}
    ]}
  ]
}
